Measurements reported in patent publication US7846925B2, “Azolidinone-vinyl fused-benzene derivatives” (Merck Serono SA, priority 2002, dated 2010).

How the values were obtained:
[1] = test system: C5a-mediated AKT phosphorylation; assay: Cell based ELISA: Akt/PKB phosphorylation in Raw 264-7 macrophages after stimulation with C5a; conditions: Mus musculus, RAW264.7, compound at 1 μM, 50 nM C5a, read-out: percentage of inhibition of C5a-mediated AKT phosphorylation
Description: b) Cell Based ELISA to Monitor PI3K Inhibition:
Measurement of Akt/PKB phosphorylation in macrophages after stimulation with C5a: Raw 264: Raw 264-7 macrophages (cultured in DMEM-F12 medium containing 10% Fetal Calf serum and antibiotics) are plated at 20'000 cells/well in a 96 MTP 24 h before cell stimulation. Previous to the stimulation with 50 nM of Complement 5a (C5a; which is a well known chemokine which stimulates the used cells) during 5 minutes, Cells are serum starved for 2 h, and pretreated with inhibitors for 20 minutes. After stimulation cells are fixed in 4% formaldehyde for 20 minutes and washed 3 times in PBS containing 1% Triton X-100 (PBS/Triton). Endogenous peroxidase is blocked by a 20 minutes incubation in 0.6% H2O2 and 0.1% Sodium Azide in PBS/Triton and washed 3 times in PBS/Triton. Cells are then blocked by 60 minutes incubation with 10% fetal calf serum in PBS/Triton. Next, phosphorylated Atk/PKB is detected by an overnight incubation at 4° C. with first antibody (anti phospho Serine 473 Akt 1HC, Cell Signaling) diluted 800-fold in PBS/Triton, containing 5% bovine serum albumin (BSA). After 3 washes in PBS/Triton, cells are incubated for 60 minutes with a peroxidase conjugated goat-anti-rabbit antibody (1/400 dilution in PBS/Triton, containing 5% BSA), washed 3 times in PBS/Triton, and 2 times in PBS and further incubated in 100 μl of substrate reagent solution (R&D) for 20 minutes.
The reaction is stopped by addition of 50 μl of 1 M H2SO4 and absorbance is read at 450 nm.
The values indicated reflect the percentage of inhibition of AKT phosphorylation as compared to basal level. Said values show a clear effect of the azolidinone-vinyl fused-benzene compounds on the activation of AKT phosphorylation in macrophages.

[2] = biological target: Human recombinant GST-PI3Kγ (Homo sapiens, UniProt P48736); assay: High Throughput PI3K Lipid Kinase Assay (scintillation proximity assay); type: biochemical
Description: a) High Throughput PI3K Lipid Kinase Assay (Binding Assay):
The assay combines the scintillation proximity assay technology (SPA, Amersham) with the capacity of neomycin (a polycationic antibiotic) to bind phospholipids with high affinity and specificity. The Scintillation Proximity Assay is based on the properties of weakly emitting isotopes (such as ^3H, ^125I, ^33P). Coating SPA beads with neomycin allows the detection of phosphorylated lipid substrates after incubation with recombinant PI3K and radioactive ATP in the same well, by capturing the radioactive phospholipids to the SPA beads through their specific binding to neomycin.
To a 384 wells MTP containing 5 μl of the test compound of formula (I) (solubilized in 6% DMSO; to yield a concentration of 100, 30, 10, 3, 1, 0.3, 0.1, 0.03, 0.01, 0.001 μM of the test compound), the following assay components are added. 1) 5 μl (58 ng) of Human recombinant GST-PI3Kγ (in Hepes 40 mM, pH 7.4, DTT 1 mM and ethyleneglycol 5%) 2) 10 μl of lipid micelles and 3) 10 μl of Kinase buffer ([^33P]γATP 45 μM/60 nCi, MgCl2 30 mM, DTT 1 mM, β-Glycerophosphate 1 mM, Na3VO4 100 μM, Na Cholate 0.3%, in Hepes 40 mM, pH 7.4). After incubation at room temperature for 180 minutes, with gentle agitation, the reaction is stopped by addition of 60 μl of a solution containing 100 μg of neomycin-coated PVT SPA beads in PBS containing ATP 10 mM and EDTA 5 mM. The assay is further incubated at room temperature for 60 minutes with gentle agitation to allow binding of phospholipids to neomycin-SPA beads. After precipitation of the neomycin-coated PVT SPA beads for 5 minutes at 1500×g, radioactive PtdIns(3)P is quantified by scintillation counting in a Wallac MicroBeta™ plate counter.
The values indicated in respect of PI3Kγ refer to the IC50 (μM), i.e. the amount necessary to achieve 50% inhibition of said target. Said values show a considerable potency of the azolidinone-vinyl fused-benzene compounds with regard to PI3Kγ.

CK2 protein kinase = CK2 protein kinase (Homo sapiens, UniProt P68400); conditions: cited from earlier work
neutrophil = conditions: cited from earlier work
phospholipases = conditions: cited from earlier work
Class I PI3-kinases = conditions: read-out: IC50 against each of these PI3-kinases; cited from earlier work
[3] = in vivo; cited from earlier work

Human recombinant GST-PI3Kγ, sequence (P48736 whole entry): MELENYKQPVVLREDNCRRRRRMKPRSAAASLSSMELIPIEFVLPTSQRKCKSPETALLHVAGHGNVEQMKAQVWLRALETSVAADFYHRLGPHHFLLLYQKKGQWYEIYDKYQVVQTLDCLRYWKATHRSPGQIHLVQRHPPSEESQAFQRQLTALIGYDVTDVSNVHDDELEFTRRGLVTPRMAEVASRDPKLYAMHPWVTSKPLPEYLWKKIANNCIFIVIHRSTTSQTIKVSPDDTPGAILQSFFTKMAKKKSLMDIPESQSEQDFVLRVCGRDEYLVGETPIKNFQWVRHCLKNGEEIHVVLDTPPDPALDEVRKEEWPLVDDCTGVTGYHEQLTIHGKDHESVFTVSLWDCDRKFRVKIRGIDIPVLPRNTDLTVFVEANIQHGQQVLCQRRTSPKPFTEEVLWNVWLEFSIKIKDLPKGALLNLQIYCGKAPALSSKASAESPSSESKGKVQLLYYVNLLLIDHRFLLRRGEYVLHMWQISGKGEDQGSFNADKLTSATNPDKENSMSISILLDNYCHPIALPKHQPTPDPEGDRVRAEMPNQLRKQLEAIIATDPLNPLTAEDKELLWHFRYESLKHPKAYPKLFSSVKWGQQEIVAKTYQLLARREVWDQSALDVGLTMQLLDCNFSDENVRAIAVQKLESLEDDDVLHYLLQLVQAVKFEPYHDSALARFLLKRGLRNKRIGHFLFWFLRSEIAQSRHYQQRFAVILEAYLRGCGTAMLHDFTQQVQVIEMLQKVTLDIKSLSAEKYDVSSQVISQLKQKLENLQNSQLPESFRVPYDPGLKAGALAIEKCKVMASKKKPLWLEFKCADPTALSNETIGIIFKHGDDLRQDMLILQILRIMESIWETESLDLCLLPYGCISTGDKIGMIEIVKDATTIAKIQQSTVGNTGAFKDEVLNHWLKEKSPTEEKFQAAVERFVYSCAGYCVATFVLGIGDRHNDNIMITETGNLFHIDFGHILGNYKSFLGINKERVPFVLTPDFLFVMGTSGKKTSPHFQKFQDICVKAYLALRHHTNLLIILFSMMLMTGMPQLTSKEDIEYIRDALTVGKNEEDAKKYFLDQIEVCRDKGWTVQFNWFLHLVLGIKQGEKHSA
CK2 protein kinase, sequence (P68400 whole entry): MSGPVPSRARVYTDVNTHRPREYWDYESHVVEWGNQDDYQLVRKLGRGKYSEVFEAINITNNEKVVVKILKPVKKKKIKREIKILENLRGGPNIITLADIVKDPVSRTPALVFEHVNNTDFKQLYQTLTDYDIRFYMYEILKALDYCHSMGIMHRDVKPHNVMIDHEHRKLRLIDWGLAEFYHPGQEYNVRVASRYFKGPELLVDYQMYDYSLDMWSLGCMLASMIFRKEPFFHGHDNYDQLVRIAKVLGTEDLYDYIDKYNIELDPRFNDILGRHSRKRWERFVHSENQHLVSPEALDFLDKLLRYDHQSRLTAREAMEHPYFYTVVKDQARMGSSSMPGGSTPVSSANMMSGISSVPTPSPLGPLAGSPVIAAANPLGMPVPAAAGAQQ

| SMILES | IC50 [2] [nM] | inhibition at 1 µM [1] [%] | other results |
| --- | --- | --- | --- |
| O=C1NC(=O)C(=Cc2ccc3ncnc(N4CCCCC4)c3c2)S1 [Example 19, 5-[(4-piperidin-1-ylquinazolin-6-yl)methylene]-1,3-thiazolidine-2,4-dione] | – | ~100 | – |
| O=c1cc(N2CCOCC2)oc2c(-c3ccccc3)cccc12 [LY294002] | – | – | IC50 (CK2 protein kinase): 5000 to 10000 nM; neutrophil migration (neutrophil): block; superoxide release (neutrophil): block; inhibitory activity on phospholipases (phospholipases): some inhibitory activity; IC50 (Class I PI3-kinases): 15000 to 20000 nM |
| CC(C)(C)c1cc(/C=C2\SC(=N)NC2=O)cc2c1OCC2(C)C [JA] | – | – | activity in a paw swelling assay [3]: inactive |
| O=C1NC(=O)/C(=C/c2ccc3c(c2)OCO3)S1 [Example 1, 5-(1,3-benzodioxol-5-ylmethylene)-1,3-thiazolidine-2,4-dione] | – | ~100 | – |
| N=C1NC(=O)/C(=C/c2ccc3nccnc3c2)S1 [Example 66, 2-Imino-5-quinoxalin-6-ylmethylene-thiazolidin-4-one] | < 1000 | ~100 | – |
| N=C1NC(=O)/C(=C/c2ccc3ncnc(N4CCCCC4)c3c2)S1 [Example 41, 2-Imino-5-(4-piperidine-quinazolin-6-ylmethylene)-thiazolidin-4-one] | < 1000 | – | – |

The next lines start with results.

| IC50 [2] [nM] | SMILES | inhibition at 1 µM [1] [%] | other results |
| --- | --- | --- | --- |
| < 1000 | O=C1NC(=O)/C(=C/c2ccc3c(c2)N(Cc2ccccc2)C(=O)CO3)S1 [Example 103, 5-(4-Benzyl-3-oxo-3,4-dihydro-2H-benzo[1,4]oxazin-6-ylmethylene)-thiazolidine-2,4-dione] | – | – |
| < 1000 | O=C1NC(=O)/C(=C/c2ccc3occ(/C=C/C(=O)N4CCCCC4)c3c2)S1 [Example 73, 5-[3-(3-Oxo-3-piperidin-1-yl-propenyl)-benzofuran-5-ylmethylene]-thiazolidine-2,4-dione] | – | – |
| < 1000 | COC(=O)c1cc2ccc(/C=C3\SC(=O)NC3=O)cc2o1 [Example 110, 5-(2-Carboxymethyl-benzofuran-6-ylmethylene)-thiazolidine-2,4-dione] | – | – |
| < 1000 | COc1ccccc1Cn1cnc2ccc(C=C3SC(=O)NC3=O)cc21 [Example 61, 5-{[1-(2-methoxybenzyl)-1H-benzimidazol-6-yl]methylene}-1,3-thiazolidine-2,4-dione] | – | – |
| < 1000 | O=C1NC(=O)/C(=C/c2ccc3nsnc3c2)S1 [Example 107, 5-Benzo[1,2,5]thiadiazol-5-ylmethylene-thiazolidine-2,4-ione] | ~100 | – |
